Results from PMC4928094, “The first characterization of multidrug and toxin extrusion (MATE/SLC47) proteins in zebrafish (Danio rerio)” (Scientific Reports, 2016).
Where a name gives a salt, the structure may show the parent alone. Read-outs that look alike come from different tables or passages of the source.

Assays:
[1] = target: zebrafish Mate4 (Danio rerio, UniProt U3Q0C3); test: DAPI inhibition assay, Mate4; type: cell-based; conditions: for interaction with DAPI uptake (in words): co-incubation with modulator (50 μM–2 mM), Fig. 5
Procedure: (§1) HEK293T cells were transiently transfected as described previously[31] using the PEI (polyethyleneimine) reagent in 48-well plates. Cells were in parallel transfected with pcDNA3.1/His/LacZ plasmid and transfection efficiency was evaluated 24 h after transfection with the LacZ staining protocol.
(§2) HEK293T cells overexpressing respective single zebrafish Mate transporter were used for further experiments. […] DAPI fluorescence was measured at 360 and 460 nm […], respectively. The uptake into vector-transfected HEK293T cells (mock cells) was subtracted to obtain transporter-specific uptake.
(§3) Inhibition assays using DAPI as a fluorescent substrate were performed in the same transport medium. […] Compounds tested for interaction were checked using at least four concentrations but only a representative concentration (with the highest response or the largest concentration in solubility range) is shown.
(§4) For the purpose of IC50 calculations, data were fitted to the sigmoidal four-parameter dose-response model (variable slope),

[2] = target: zebrafish Mate7 (Danio rerio, UniProt U3PTD6); test: DAPI inhibition assay, Mate7; type: cell-based; conditions: for interaction strength: class by IC50 of DAPI uptake inhibition; for interaction with DAPI uptake (in words): co-incubation with modulator (50 μM–2 mM), Fig. 5
Sequence of zebrafish Mate7 (U3PTD6 entry or part of it): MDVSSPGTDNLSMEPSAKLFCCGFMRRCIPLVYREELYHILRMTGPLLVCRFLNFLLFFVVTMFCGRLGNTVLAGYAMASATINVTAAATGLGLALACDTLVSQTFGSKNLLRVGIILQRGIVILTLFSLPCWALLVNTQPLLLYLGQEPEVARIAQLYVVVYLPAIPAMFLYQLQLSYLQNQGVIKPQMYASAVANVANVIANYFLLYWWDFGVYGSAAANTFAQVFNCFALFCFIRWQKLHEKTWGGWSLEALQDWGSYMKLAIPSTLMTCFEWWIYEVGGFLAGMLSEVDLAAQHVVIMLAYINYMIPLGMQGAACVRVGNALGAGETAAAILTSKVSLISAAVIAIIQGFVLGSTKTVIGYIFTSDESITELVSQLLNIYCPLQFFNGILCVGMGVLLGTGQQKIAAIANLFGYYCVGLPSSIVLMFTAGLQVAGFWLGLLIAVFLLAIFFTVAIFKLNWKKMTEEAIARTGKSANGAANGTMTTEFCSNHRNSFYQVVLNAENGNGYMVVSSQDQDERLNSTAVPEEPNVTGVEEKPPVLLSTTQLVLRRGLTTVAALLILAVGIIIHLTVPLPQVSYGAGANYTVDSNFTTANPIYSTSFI
Procedure: as §1, §2, §3, §4

[3] = target: zebrafish Mate6 (Danio rerio, UniProt A1L2E7); test: DAPI inhibition assay, Mate6; type: cell-based; conditions: for interaction strength: class by IC50 of DAPI uptake inhibition; for interaction with DAPI uptake (in words): co-incubation with modulator (50 μM–2 mM), Fig. 5
Sequence of zebrafish Mate6 (A1L2E7 entry or part of it): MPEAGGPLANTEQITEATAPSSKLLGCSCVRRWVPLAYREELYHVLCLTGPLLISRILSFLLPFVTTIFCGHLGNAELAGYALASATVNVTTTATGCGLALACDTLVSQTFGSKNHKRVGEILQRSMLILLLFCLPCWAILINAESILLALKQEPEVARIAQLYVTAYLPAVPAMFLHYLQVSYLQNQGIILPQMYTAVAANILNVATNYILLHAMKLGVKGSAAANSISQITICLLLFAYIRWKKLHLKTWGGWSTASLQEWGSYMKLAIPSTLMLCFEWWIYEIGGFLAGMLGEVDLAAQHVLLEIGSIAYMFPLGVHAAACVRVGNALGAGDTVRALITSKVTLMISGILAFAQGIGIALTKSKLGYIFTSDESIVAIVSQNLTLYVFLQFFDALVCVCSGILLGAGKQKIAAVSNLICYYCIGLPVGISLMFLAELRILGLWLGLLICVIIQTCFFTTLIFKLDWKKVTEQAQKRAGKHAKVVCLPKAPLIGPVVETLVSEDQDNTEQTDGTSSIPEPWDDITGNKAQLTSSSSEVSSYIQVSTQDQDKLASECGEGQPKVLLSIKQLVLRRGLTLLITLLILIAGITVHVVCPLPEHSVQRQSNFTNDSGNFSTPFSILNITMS
Procedure: as §1, §2, §3, §4

[4] = target: zebrafish Mate8 (Danio rerio, UniProt A0A8M6YZ09); test: DAPI inhibition assay, Mate8; type: cell-based; conditions: for interaction strength: class by IC50 of DAPI uptake inhibition; for interaction with DAPI uptake (in words): co-incubation with modulator (50 μM–2 mM), Fig. 5
Procedure: as §1, §2, §3, §4

[5] = tested on: CC[n+]1c(-c2ccccc2)c2cc(N)ccc2c2ccc(N)cc21; test: cells, lysate or membranes; conditions: dye uptake, HEK293T, mean ± SD
Procedure: (§5) Calibration curves for all substrates were generated in 0.1% SDS and in the cell matrix dissolved in 0.1% SDS. Resulting linear calibration curves were the same in the SDS and in the dissolved cell matrix. Using the calibration curves, uptake was expressed as pmol of substrate per mg of protein per minute. Total cell protein content was determined according to the Bradford method[33].
(§6) All assays were performed in 3–5 independent experiments run in triplicates. […] All calculations were performed using GraphPad Prism 5.00 for Windows (GraphPad Software, San Diego, California, USA) as described below. The kinetic parameters, Km and Vmax values were calculated using the Michaelis-Menten equation,
(§7) where V is velocity (picomoles of substrate per milligram of proteins per minute), Vmax is maximal velocity, [S] is substrate concentration and Km is the Michaelis Menten constant.

[6] = target: T1, zebrafish Mate3 (Danio rerio, UniProt A1L1P9); test: DAPI inhibition assay, Mate3; type: cell-based; design: expressed in transfected cells; host or cells: HEK293T; conditions: for interaction with DAPI uptake (in words): Mate3, co-incubation with modulator (50 μM–2 mM), Fig. 5
T1 sequence (A1L1P9 1-590): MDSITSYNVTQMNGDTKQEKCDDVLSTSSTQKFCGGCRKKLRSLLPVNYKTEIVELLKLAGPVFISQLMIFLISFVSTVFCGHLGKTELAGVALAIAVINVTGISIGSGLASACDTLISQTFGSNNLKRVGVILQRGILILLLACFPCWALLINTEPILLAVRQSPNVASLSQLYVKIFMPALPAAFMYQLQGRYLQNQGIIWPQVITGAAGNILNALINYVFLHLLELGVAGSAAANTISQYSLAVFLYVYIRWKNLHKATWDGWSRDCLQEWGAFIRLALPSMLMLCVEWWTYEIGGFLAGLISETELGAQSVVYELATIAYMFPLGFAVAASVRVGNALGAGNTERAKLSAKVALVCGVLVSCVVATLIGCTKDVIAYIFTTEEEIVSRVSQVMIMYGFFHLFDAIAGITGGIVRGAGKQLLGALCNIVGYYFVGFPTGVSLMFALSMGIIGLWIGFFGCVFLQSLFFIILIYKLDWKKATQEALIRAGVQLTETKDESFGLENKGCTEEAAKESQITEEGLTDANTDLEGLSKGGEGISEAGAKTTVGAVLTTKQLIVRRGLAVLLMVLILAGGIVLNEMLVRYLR
Procedure: as §1, §2, §3, §4

[7] = substrate: CN(C)c1ccc(/C=C/c2cc[n+](C)cc2)cc1; test: cells, lysate or membranes; conditions: dye uptake, HEK293T, mean ± SD, NT = no transport found
Procedure: as §5, §6, §7

[8] = substrate: COC(=O)c1ccccc1-c1c2ccc(=N)cc-2oc2cc(N)ccc12; test: cells, lysate or membranes; conditions: dye uptake, HEK293T, mean ± SD, NT = no transport found
Procedure: as §5, §6, §7

[9] = Mate4, inhibition of DAPI (1 μM) uptake, n = 3, NE = no effect in the compound solubility range, read-out: IC50
[10] = Mate7, inhibition of DAPI (2.5 μM) uptake, n = 3, NE = no effect in the compound solubility range, read-out: IC50
[11] = other: Mate4, NT = no transport found
[12] = other: Mate8, NT = no transport found

C[C@]12CC[C@H](OS(=O)(=O)O)CC1=CC[C@@H]1[C@@H]2CC[C@]2(C)C(=O)CC[C@@H]12 [DHEAS, dehydroepiandrosterone sulfate]
IC50 [1, 9]: 313 µM | interaction strength ([2]; Mate7): moderate (IC50 of 30–99 μM indicated moderate interaction) | IC50 [2, 10]: 60.2 µM | interaction strength ([3]; Mate6): moderate (IC50 of 30–99 μM indicated moderate interaction) | IC50 ([3]; Mate6, inhibition of DAPI (1 μM) uptake, n = 3, NE = no effect in the compound solubility range, read-out: IC50): 39.1 µM | interaction strength ([4]; Mate8): strong (Compounds with IC50 of 1–29 μM were designated as strong interactors) | IC50 ([4]; Mate8, inhibition of DAPI (1 μM) uptake, n = 3, NE = no effect in the compound solubility range, read-out: IC50): 26.9 µM

CN(C)C(=N)N=C(N)N [metformin, reference compound]
interaction with DAPI uptake (in words) ([1]; Mate4): did not interact | interaction with DAPI uptake (in words) ([2]; Mate7): did not interact | interaction with DAPI uptake (in words) ([3]; Mate6): did not interact | interaction with DAPI uptake (in words) ([4]; Mate8): did not interact

C[C@H](CCC(=O)O)[C@H]1CC[C@H]2[C@@H]3CC[C@@H]4C[C@H](O)CC[C@]4(C)[C@H]3C[C@H](O)[C@]12C [Deoxycholate, deoxycholate]
IC50 [2]: 203 µM | interaction strength ([2]; Mate7): weak (IC50 of 100–999 μM was classified as weak interaction) | IC50 [4]: 274 µM | interaction strength ([4]; Mate8): weak (IC50 of 100–999 μM was classified as weak interaction)

C[n+]1ccc(-c2cc[n+](C)cc2)cc1 [Paraquat, paraquat, reference compound]
IC50 [1]: 462 µM | interaction with DAPI uptake (in words) ([2]; Mate7): too weak to determine the IC50 | IC50 [3]: 5730 µM | IC50 [4]: 6290 µM | interaction strength ([4]; Mate8): very weak (substances with IC50 above 1000 μM were considered very weak interactors)

zebrafish Mate4 (Danio rerio)
Km [5, 11]: 0.45 ± 0.08 µM | Vmax [5, 11]: 37.4 ± 2.02 pmol/mg protein/min

CN1CC(=O)NC1=N [creatinine]
interaction with DAPI uptake (in words) ([1]; Mate4): did not interact | interaction with DAPI uptake (in words) [6]: did not interact | interaction with DAPI uptake (in words) ([2]; Mate7): did not interact | interaction with DAPI uptake (in words) ([3]; Mate6): did not interact | interaction with DAPI uptake (in words) ([4]; Mate8): did not interact

zebrafish Mate8 (Danio rerio)
Km [5, 12]: 0.85 ± 0.12 µM | Vmax [5, 12]: 17.0 ± 0.59 pmol/mg protein/min

C[C@]12CCC(=O)C=C1CC[C@@H]1[C@@H]2CC[C@]2(C)C(=O)CC[C@@H]12 [Androstenedione, androstenedione]
IC50 [1]: 114 µM | IC50 [2]: 14.9 µM | interaction strength ([2]; Mate7): strong (Compounds with IC50 of 1–29 μM were designated as strong interactors) | IC50 [3]: 25.3 µM | IC50 [4]: 20.1 µM | interaction strength ([4]; Mate8): strong (Compounds with IC50 of 1–29 μM were designated as strong interactors)

C[C@]12CC[C@H]3[C@@H](CCC4=CC(=O)CC[C@@]43C)[C@@H]1CC[C@@H]2O [Testosterone, testosterone]
IC50 [1]: 651 µM | interaction with DAPI uptake (in words) ([1]; Mate4): inhibited | IC50 [6]: 669 µM | interaction with DAPI uptake (in words) [6]: inhibited | IC50 [2]: 42 µM | interaction strength ([2]; Mate7): moderate (IC50 of 30–99 μM indicated moderate interaction) | interaction with DAPI uptake (in words) ([2]; Mate7): inhibited | IC50 [3]: 39 µM | interaction strength ([3]; Mate6): moderate (IC50 of 30–99 μM indicated moderate interaction) | interaction with DAPI uptake (in words) ([3]; Mate6): inhibited | IC50 [4]: 50.5 µM | interaction strength ([4]; Mate8): moderate (IC50 of 30–99 μM indicated moderate interaction) | interaction with DAPI uptake (in words) ([4]; Mate8): inhibited

C[C@]12C[C@H](O)[C@H]3[C@@H](CCC4=CC(=O)CC[C@@]43C)[C@@H]1CC[C@@H]2C(=O)CO [Corticosterone, corticosterone]
IC50 [1]: 238 µM | IC50 [2]: 99.6 µM | interaction strength ([2]; Mate7): weak (IC50 of 100–999 μM was classified as weak interaction) | IC50 [3]: 99.3 µM | interaction strength ([3]; Mate6): moderate (IC50 of 30–99 μM indicated moderate interaction) | IC50 [4]: 22.1 µM | interaction strength ([4]; Mate8): strong (Compounds with IC50 of 1–29 μM were designated as strong interactors)

C=C[C@H]1C[N@@]2CC[C@H]1C[C@@H]2[C@@H](O)c1ccnc2ccc(OC)cc12 [Quinidine, quinidine, reference compound]
IC50 ([6]; read-out: IC50): 58.4 µM

zebrafish Mate7 (Danio rerio)
Km ([5]; other: Mate7): 0.79 ± 0.19 µM | Vmax ([5]; other: Mate7): 26.3 ± 1.82 pmol/mg protein/min

zebrafish Mate6 (Danio rerio)
Km ([5]; other: Mate6): 2.98 ± 0.18 µM | Vmax ([5]; other: Mate6): 504 ± 9.79 pmol/mg protein/min

CC[N+](CC)(CC)CC [TEA, tetraethylammonium, reference compound]
IC50 [1, 9]: 5240 µM | interaction with DAPI uptake (in words) [6]: did not interact | IC50 [2, 10]: 3310 µM | interaction with DAPI uptake (in words) ([4]; Mate8): not inhibited

B1: zebrafish Mate4 (Danio rerio) (protein)
chain: MEMNSIHTEDHINGYQKEEKVEDAQLTSRSICAECLRKLRRLLPVNYKEEVMQLLKLAGPVFISQLMIFLISFVSTVFCGHLGKTELAGVALAIAVINVTGISIGSGLASACDTLISQTFGSNNLKRVGVILQRGILILLLACFPCWALLINTEPILLAVRQSPNVASLSQLYVKIFMPALPATFMYQLQGLYLQNQGIIWPQVITGAAGNILNALINYVFLYLLDLGVPGSAAANAISQYSLAVILYTYIRCMGLHKATWDGWSWDCLQEWGSFIRLALPSMLMLCAEWWTYEIGGFLAGLISEVELGAQSIVYELASVMYMFPLGFAVAAGVRVGNALGAGNTEQAKLSAKVSLVCGLLVSSVIAVVIAGTNNIIGYIFSKDEDIVLRVSQVMVMYGFVHLFDATSAITGGIVRGAGKQQIGALCNMVGYYCVGFPIGVSLMFAFNMGIVGLWIGFFTCVFLQSLFFIILIYRLDWKKATQEALIRAGVQLTEIKYESFGLENKGCTEEAAQENTEEGQTDTNTDLEGLSKGEGGITDAVALVTVGEVLTAKQLAVRRGLAFFFMLLILTGGIVLNEVLIRFVI
Km ([7]; other: Mate4): 4.49 ± 0.63 µM | Vmax ([7]; other: Mate4): 23.6 ± 1.23 pmol/mg protein/min | Km ([8]; other: Mate4): 0.32 ± 0.03 µM

B2: zebrafish Mate8 (Danio rerio) (protein)
chain: MDVSSPTTEASSMEPSTKLFCCRSVRRCIPLVYRQELYHILCMTGPLVASRILNYLLPFVITMFCGRLGNSVLAGYGMASATINITTAATGGGLALAADTLISQTFGGKNLRRVGIILQRSVLILLLFCLPCCALLINTQPILLLLRQDPEVARIAQLYVVCYLPAVPAMFLHQLQVAYLQNQGVILPQMYAGIAANVANVLTNYILLHWLELGVYGSAAANTISQIYICAFLYLYIRWKKLHVETWGGWSCDSLQEWDGYMKLAIPSTMMLCFEWWIYEVGGFLAGMLGELDLAAQHAVIMLAFINYMFPLGIQGAACVRVGNALGAGDTAGAIRTSKVSLTCTAALAVLQGLVLVSTKTVIGFLFTSDRHIVALVSKLLNVYCVLQFFDGLVCVSMGILLGSGQQKIAAVANFFGYYCIGLPLGTSLMFAAKLDVVGFWLGLLICVCVQSSFFIGVIFKFNWERVTKEAVERAGRTKISAMTAPDSITARHRENGDEYITVSAADPNVEPNATGVEEKPPVLLSTSQLVLRRGLTTLAALLILAGGITVHLIVPLPQMFYGAAANFTLNSNFTTPSSFIHSTSASL
Km ([7]; other: Mate8): 2.34 ± 0.37 µM | Vmax ([7]; other: Mate8): 22.2 ± 1.09 pmol/mg protein/min | Km ([8]; other: Mate8): 0.88 ± 0.14 µM
